From US8038984B2, “Membrane-permeant peptide complexes for treatment of sepsis” (Washington University, priority 1998, dated 2011)
Numbered stars: 1 amine (or outer) side, 2 acyl side, 3 side chain; on linkers, the order of the positions; unused ones are H or OH. Square brackets hold non-standard residues; d marks the D form. εLys = N[C@@H](CCCCN[*:1])C(=O)[*:2]; dOrn = NCCC[C@@H](N)C(=O)O; βAla = NCCC(=O)O

Assays:
[1] = system: human lymphocytes; assay: E. coli bacterial-induced lymphocyte apoptosis, staining for active caspase 3; format: cell-based
Method: Thymocytes and splenocytes were obtained from CLP and sham-treated mice ˜20 hours postoperatively. The APO-BRDU™ kit (Phoenix Flow Systems, San Diego, Calif.) was employed for flow cytometric quantitation of TUNEL. Antibodies to active caspase 3 (Cell Signaling—Catalog #9664) were used in the flow cytometry and/or TUNEL assay.
Lymphocytes were harvested from peripheral blood obtained from 6 healthy volunteers using a ficol gradient separation technique. Approximately 1×10^6 lymphocytes were plated in individual transwell containers. E. coli bacteria (strain ATCC 25922), that had been grown overnight in trypticase soy broth were added to a separate compartment of the transwell chamber separated from direct contact with the lymphocytes by a 0.02 micron filter (25 μl of bacteria at 3×10^9 CFUs added to 1 ml volume.

[2] = system: human KB-3-1 and KB-8-5 epidermoid carcinoma cells; assay: Fluorescence (confocal) microscopy of subcellular distribution; format: cell-based; conditions: 0.5 μM extracellular concentration, KB-3-1 and KB-8-5 cells
Method: Subsequently, cells on covers lips were fixed in 4% (v/v) formaldehyde in PBS at room temperature and then rinsed 3 times with PBS (1 min each). Cells were then stained and mounted with anti-fading mounting medium containing propidium iodide (1 μg/ml) following the recommended procedures of the manufacturer (Vectashield). The distribution of the fluorescence was analyzed on a Zeiss confocal laser fluorescence microscope equipped with a mercury lamp, oil immersion objectives and a CCD interfaced to a PC. Propidium iodide distribution was interrogated using 340-380 nm excitation and 430 nm emission, while fluorescein distribution was interrogated using 450-490 nm excitation and 520 nm emission.
To localize the subcellular distribution of the Tat-peptide conjugate, uptake experiments were performed with the fluorescein derivatized conjugate using human KB-3-1 and KB-8-5 epidermoid carcinoma cells.

[3] = system: human Jurkat leukemia cells; assay: Cell accumulation (uptake) of Tc-99m-Tat-peptide complexes in Jurkat cells; format: cell-based; conditions: Jurkat cells
Method: Control solution for cell uptake experiments was a modified Earle's balanced salt solution (MEBSS) containing (mM): 145 Na^+, 5.4 K^+, 1.2 Ca^2+, 0.8 Mg^2+, 152 Cl^−, 0.8 H2PO4^−, 0.8 SO4^2−, 5.6 dextrose, 4.0 HEPES, and 1% bovine calf serum (vol/vol), pH 7.4±0.05. A 130 mM K^+/20 mM Cl^− solution was made by equimolar substitution of potassium methanesulfonate for NaCl as described by Piwnica-Worms et al. (J. Gen. Physiol., 81:731-748, 1983).
(§1) Characterization of accumulation of Tc-99m-peptide complex was also performed for nonadherent cell lines such as human Jurkat leukemia cells with minor modifications of methods described in the literature (Bosch et al., Leukemia, 11: 1131-1137, 1997). Transport experiments were performed in siliconized microfuge tubes and initiated by addition of 732.5 μl of cells at 2-3×10^6 cells/ml to 10 μl of buffer containing Tc-99m-peptide complex and 7.5 μl of vehicle alone or of any added drug in vehicle at 100-fold the desired concentration. The tubes were incubated in a 37° C. water bath with occasional mixing. The reaction was terminated by centrifuging 250 μl aliquots from the reaction for 10 seconds through 800 μl of a 75:25 mixture of silicon oil, density=1.050 (Aldrich) and mineral oil, density=0.875 (Acros). An aliquot of the aqueous phase was obtained to normalize extracellular concentration of the complex to cell-associated activity, then the oil and aqueous phases were aspirated and the cell pellet extracted in 0.5 ml of 1% SDS, 10 mM sodium borate. For tracer washout experiments, cells were first incubated to plateau uptake (10 min) in loading buffer (37° C.), collected by rapid centrifugation and the pellet resuspended in 50 ml MEBSS (4° C.) to clear extracellular tracer. Following another rapid spin, the cell pellet was resuspended in isotope-free MEBSS (37° C.) and the experiment terminated as above after various times in warm washout buffer. Radioactivity of the cell pellet, buffers and stocks were determined on a gamma counter (Cobra II, 130-165 keV window) and cell protein was determined by the BCA assay (Pierce). Transport data are reported as fmol Tc-complex (mg protein)^−1 (nM0)^− as previously described, with (nM0)^−1 representing total concentration of peptide conjugate in the extracellular buffer (Piwnica-Worms et al., Circulation, 82: 1826-1838, 1990).
Kinetic experiments of [^99mTc]D-Tat-peptide complexes were performed in Jurkat leukemia cells suspended in MEBSS with minor modification of the methods described in Example 6. Transport experiments were performed in siliconized microfuge tubes and initiated by addition of 732.5 μl of cells at 2-3×10^6 cells/ml to 10 μl of MEBSS containing [^99mTc]D-Tat-peptide complex and 7.5 μl of vehicle alone or of any added drug in vehicle at 100 fold the desired concentration. Unless stated otherwise, [^99mTc]D-Tat-peptide complex was added to MEBSS accompanied by a molar excess of unlabeled D-Tat-peptide as obtained directly from the labeling procedure. The final total peptide concentration was 7 nM to 8 μM (1-2 μCi/ml). The tube were incubated at 37° C. and the reaction terminated as previously described. For peptide washout experiments, cells were first incubated to plateau uptake (20 minutes) in MEBSS loading buffer at 37° C., collected by rapid centrifugation and the pellet resuspended in 50 ml of isotope-free MEBSS at 4° C. to clear extracellular tracer. Following another rapid spin, the cell pellet was resuspended in isotope-free MEBSS at 37° C. for various times and the reaction terminated as described previously. Protein assays and determination of gamma activity were as described in Example 6. Absolute concentration of total [Tc]Tat-peptide complex in solution was determined from the specific activity of Tc, based on equations of Mo/Tc generator equilibrium (Lamson et al., J. Nucl. Med., 16:639-641, 1975). […]

[4] = system: human Jurkat leukemia cells; assay: Washout of Tc-99m-Tat-peptide complexes from preloaded Jurkat cells; format: cell-based; conditions: residual activity remaining within the cell 30 minutes after a wash in isotope-free buffer
Method: as §1
Kinetic experiments of [^99mTc]D-Tat-peptide complexes were performed in Jurkat leukemia cells suspended in MEBSS with minor modification of the methods described in Example 6. Transport experiments were performed in siliconized microfuge tubes and initiated by addition of 732.5 μl of cells at 2-3×10^6 cells/ml to 10 μl of MEBSS containing [^99mTc]D-Tat-peptide complex and 7.5 μl of vehicle alone or of any added drug in vehicle at 100 fold the desired concentration. Unless stated otherwise, [^99mTc]D-Tat-peptide complex was added to MEBSS accompanied by a molar excess of unlabeled D-Tat-peptide as obtained directly from the labeling procedure. The final total peptide concentration was 7 nM to 8 μM (1-2 μCi/ml). The tube were incubated at 37° C. and the reaction terminated as previously described. For peptide washout experiments, cells were first incubated to plateau uptake (20 minutes) in MEBSS loading buffer at 37° C., collected by rapid centrifugation and the pellet resuspended in 50 ml of isotope-free MEBSS at 4° C. to clear extracellular tracer. Following another rapid spin, the cell pellet was resuspended in isotope-free MEBSS at 37° C. for various times and the reaction terminated as described previously. Protein assays and determination of gamma activity were as described in Example 6. Absolute concentration of total [Tc]Tat-peptide complex in solution was determined from the specific activity of Tc, based on equations of Mo/Tc generator equilibrium (Lamson et al., J. Nucl. Med., 16:639-641, 1975). Transport data are reported as pmol of peptidei (mg protein)^−1 (μM0)^−1, wherein peptidei represents total peptide conjugate within the cells and (nM0)^−1 represents concentration of total peptide conjugate in the extracellular buffer.

[5] = molecular target: T1, caspase-3 (Homo sapiens, UniProt P42574); assay: Cleavage of the caspase-3 cleavable linker in situ in C6-ceramide-treated Jurkat cells; format: cell-based; conditions: 5 μM C6-ceramide, 1 μM peptide, RP-HPLC at 440 nm of lysates
T1 construct: Human Jurkat leukemia cells express pro-caspase-3; endogenous in cells; host or cells: Jurkat (human T-cell leukemia)
T1 sequence (P42574 29-175 limits assumed): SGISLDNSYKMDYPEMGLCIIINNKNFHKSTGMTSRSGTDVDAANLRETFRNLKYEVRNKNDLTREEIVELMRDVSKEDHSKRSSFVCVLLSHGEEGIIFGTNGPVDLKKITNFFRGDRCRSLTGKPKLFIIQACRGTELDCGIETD
T1 sequence (P42574 176-277 limits assumed): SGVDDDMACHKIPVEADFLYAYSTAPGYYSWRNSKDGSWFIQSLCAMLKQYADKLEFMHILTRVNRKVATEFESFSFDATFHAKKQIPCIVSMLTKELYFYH
Method: Human Jurkat leukemia cells express pro-caspase-3. Apoptosis can be induced by pre-incubation of Jurkat cells for 5 hr in medium containing C6-ceramide, a permeant phospholipid known to activate the cell death program (Herr, et al., EMBO J 16:6200-6208, 1997; Jayadev S, et al., J. Biol Chem 270:2047-2052, 1995). After pre-incubation of Jurkat cells in MEBSS buffer at […] in the absence (untreated) or presence of 5 μM C6-ceramide, 1 μM of the caspase-3 cleavable fluorescein tagged Tat peptide of Example 8 was added to the MEBSS buffer for 30 minutes. Untreated and apoptotic cells were then spun through oil (see Example 6) to clear extracellular spaces of Tat peptide, and the intact cells in the pellet were allowed to incubate for 5 minutes at 37° C. The oil was quickly suctioned off, the reaction terminated with cell lysis buffer (1% SDS, 10 mM sodium borate), and the cell extract centrifuged (500×g for 10 min) to pellet debris and precipitates. The supernatant was removed, lyophilized overnight, and resuspended in 500 μl of water. […] In C6-ceramide-treated cells, however, no such species was observable (FIG. 7).
The above experiment was repeated using the Tc-99m-Tat peptide of Example 8. […] Tc99-m and protein content were determined using published methods (Bosch et al., Leukemia 11:1131-37, 1997).

[6] = molecular target: T2, recombinant human active caspase-3 (Homo sapiens, UniProt P42574); assay: Cleavage of the caspase-3 cleavable linker in vitro; format: biochemical; conditions: 6 hrs incubation with active caspase-3, TLC
T2 construct: recombinant human active caspase-3
T2 sequence (P42574 29-175 limits assumed): T1 sequence (P42574 29-175 limits assumed)
T2 sequence (P42574 176-277 limits assumed): T1 sequence (P42574 176-277 limits assumed)
Method: In small reaction vials, Tat peptide chelate as the fluorescein tagged conjugate of Example 8 was incubated with and without recombinant human active caspase-3 in commercially available reaction buffer (caspase buffer, Invitrogen). In vial 1 was peptide conjugate in buffer without caspase-3; in vial 2 was peptide conjugate with active caspase-3; and in vial 3 was stock peptide conjugate. After 6 hrs of incubation to assure completion of the reaction, the reaction mixtures were spotted at the origin of silica gel TLC plates, developed in 15% TFA, and analyzed under an UV lamp. […] This represents direct evidence for successful synthesis of a caspase-3-cleavable Tat peptide imaging conjugate.

“(d)-Ac-RKKRR-Orn-RRR-β-A-(l)-SNRELVVDFLSDKLSQKGDS-COOH (Ac-[dR][dK][dK][dR][dR][dOrn][dR][dR][dR][βAla]SNRELVVDFLSDKLSQKGDS-OH; SMILES CC(=O)N[C@H](CCCNC(=N)N)C(=O)N[C@H](CCCCN)C(=O)N[C@H](CCCCN)C(=O)N[C@H](CCCNC(=N)N)C(=O)N[C@H](CCCNC(=N)N)C(=O)N[C@H](CCCN)C(=O)N[C@H](CCCNC(=N)N)C(=O)N[C@H](CCCNC(=N)N)C(=O)N[C@H](CCCNC(=N)N)C(=O)NCCC(=O)N[C@@H](CO)C(=O)N[C@@H](CC(N)=O)C(=O)N[C@@H](CCCNC(=N)N)C(=O)N[C@@H](CCC(=O)O)C(=O)N[C@@H](CC(C)C)C(=O)N[C@H](C(=O)N[C@H](C(=O)N[C@@H](CC(=O)O)C(=O)N[C@@H](Cc1ccccc1)C(=O)N[C@@H](CC(C)C)C(=O)N[C@@H](CO)C(=O)N[C@@H](CC(=O)O)C(=O)N[C@@H](CCCCN)C(=O)N[C@@H](CC(C)C)C(=O)N[C@@H](CO)C(=O)N[C@@H](CCC(N)=O)C(=O)N[C@@H](CCCCN)C(=O)NCC(=O)N[C@@H](CC(=O)O)C(=O)N[C@@H](CO)C(=O)O)C(C)C)C(C)C) [TAT-BH4(D)2, reference compound]” was tested, and the bacterial-induced apoptosis ([1]; 1 μM, human lymphocytes, live E. coli ~5 hours) was “did not prevent apoptosis”.

In the case of “Bcl-xL: free unconjugated Bcl-xL, anti-apoptotic Bcl-2 family protein”, the “CD3 T cell apoptosis by staining for active caspase 3” value ([1]; human lymphocytes treated with live E. coli for ~5 hours) is reported as “a similar decrease was not seen”.

“acetyl-GRKKRRORRR-AHA-εKGC-amide-fluorescein-maleimide trifluoroacetate [Example 3]” was tested, and the subcellular distribution [2] was “rapid cytoplasmic and nuclear accumulation”, the “20 min Uptake” value ([3]; [99mTc] complexes, 37° C., 20 min) was 42.74 pmol (mg protein)^−1 (μM0)^−1 and the “U/W Ratio” value ([3]; uptake/washout ratio) was 1.8. For the same substance, the “30 min Washout” value [4] was 24.32 pmol (mg protein)^−1 (μM0)^−1.

For “fluorescein tagged conjugate of Example 8: caspase-3 cleavable Tat peptide conjugate labeled at the C-terminal thiol of the peptide chelator with fluorescein maleimide (Ac-GRKKRRQRRRGDEVDG[εLys]GC(fluorescein maleimide)-NH2; not fully specified; printed as acetyl-GRKKRRQRRR-GDEVDG-εKGC-amide; also: conjugate)”, the “cleavage in living cells upon activation of caspase-3” value ([5]; listed as caspase-3 cleavable fluorescein tagged Tat peptide of Example 8) was “rapid cleavage”, the “cleavage in living cells upon activation of caspase-3” value ([5]; listed as fluorescein tagged Tat peptide) was “absence of the intact Tat peptide” and the “cleavage by caspase-3” value [6] was “cleavage of the Tat peptide conjugate at the D-G cleavage site”.
